# Results: the NIST ThermoML archive (doi:10.1016/j.tca.2010.04.004)
# Numbers after ± are expanded uncertainties.
# Assay: mn = molality of the nth substance listed, in mol/kg
# Conditions: 298.15 K, 101 kPa, Liquid, Vibrating tube method
smiles,measurement,setting,value
O=S(=O)(O)CC(O)CN1CCOCC1 (stereo not drawn) [3-morpholino-2-hydroxypropanesulfonic acid] + O,mass density,m1 = 0.0126,998.04 ± 0.13 kg/m3
same,mass density,m1 = 0.0178,998.45 ± 0.13 kg/m3
same,mass density,m1 = 0.0228,998.84 ± 0.13 kg/m3
same,mass density,m1 = 0.027,999.17 ± 0.13 kg/m3
same,mass density,m1 = 0.036,999.87 ± 0.13 kg/m3
same,mass density,m1 = 0.045,1000.57 ± 0.13 kg/m3
same,mass density,m1 = 0.0519,1001.1 ± 0.13 kg/m3
same,mass density,m1 = 0.063,1001.95 ± 0.13 kg/m3
same,mass density,m1 = 0.0706,1002.53 ± 0.13 kg/m3
same,mass density,m1 = 0.0771,1003.03 ± 0.13 kg/m3
O=S(=O)(O)CCCCN1CCOCC1 [4-morpholinebutanesulfonic acid] + O,mass density,m1 = 0.0134,997.89 ± 0.13 kg/m3
same,mass density,m1 = 0.0201,998.3 ± 0.13 kg/m3
same,mass density,m1 = 0.0282,998.8 ± 0.13 kg/m3
same,mass density,m1 = 0.0365,999.31 ± 0.13 kg/m3
same,mass density,m1 = 0.0456,999.87 ± 0.13 kg/m3
same,mass density,m1 = 0.054,1000.38 ± 0.13 kg/m3
same,mass density,m1 = 0.0636,1000.96 ± 0.13 kg/m3
same,mass density,m1 = 0.0702,1001.35 ± 0.13 kg/m3
same,mass density,m1 = 0.0768,1001.74 ± 0.13 kg/m3
same,mass density,m1 = 0.0827,1002.09 ± 0.13 kg/m3
O=S(=O)(O)CCN1CCOCC1 [4-morpholineethanesulfonic acid] + O,mass density,m1 = 0.0114,997.79 ± 0.13 kg/m3
same,mass density,m1 = 0.018,998.22 ± 0.13 kg/m3
same,mass density,m1 = 0.0237,998.59 ± 0.13 kg/m3
same,mass density,m1 = 0.0301,999.01 ± 0.13 kg/m3
same,mass density,m1 = 0.0403,999.67 ± 0.13 kg/m3
same,mass density,m1 = 0.0513,1000.38 ± 0.13 kg/m3
same,mass density,m1 = 0.0614,1001.03 ± 0.13 kg/m3
same,mass density,m1 = 0.0722,1001.72 ± 0.13 kg/m3
same,mass density,m1 = 0.0822,1002.35 ± 0.13 kg/m3
same,mass density,m1 = 0.0947,1003.14 ± 0.13 kg/m3
O=S(=O)(O)CCCN1CCOCC1 [4-morpholinepropanesulfonic acid] + O,mass density,m1 = 0.0077,997.53 ± 0.12 kg/m3
same,mass density,m1 = 0.0172,998.13 ± 0.12 kg/m3
same,mass density,m1 = 0.0292,998.88 ± 0.12 kg/m3
same,mass density,m1 = 0.0386,999.46 ± 0.12 kg/m3
same,mass density,m1 = 0.0496,1000.14 ± 0.12 kg/m3
same,mass density,m1 = 0.0556,1000.5 ± 0.12 kg/m3
same,mass density,m1 = 0.0611,1000.84 ± 0.12 kg/m3
same,mass density,m1 = 0.0668,1001.19 ± 0.12 kg/m3
same,mass density,m1 = 0.0736,1001.59 ± 0.12 kg/m3
same,mass density,m1 = 0.0812,1002.05 ± 0.12 kg/m3
same,mass density,m1 = 0.0869,1002.39 ± 0.12 kg/m3
[Br-].[K+] [potassium bromide] + O,mass density,m1 = 0.05,1001.25 ± 0.13 kg/m3
same,mass density,m1 = 0.16,1010.47 ± 0.13 kg/m3
same,mass density,m1 = 0.25,1017.89 ± 0.14 kg/m3
[Cl-].[K+] [potassium chloride] + O,mass density,m1 = 0.05,999.45 ± 0.12 kg/m3
same,mass density,m1 = 0.16,1004.53 ± 0.12 kg/m3
same,mass density,m1 = 0.25,1008.66 ± 0.12 kg/m3
CC(=O)[O-].[K+] [potassium ethanoate] + O,mass density,m1 = 0.05,999.46 ± 0.12 kg/m3
same,mass density,m1 = 0.16,1004.6 ± 0.1 kg/m3
same,mass density,m1 = 0.25,1008.74 ± 0.12 kg/m3
[Cl-].[Na+] [sodium chloride] + O,mass density,m1 = 0.05,999.12 ± 0.13 kg/m3
same,mass density,m1 = 0.16,1003.6 ± 0.1 kg/m3
same,mass density,m1 = 0.25,1007.22 ± 0.13 kg/m3
